Assay results as given in paper PMC4980843 (European journal of medicinal chemistry, 2009).
Where two headings read alike, the source gives them in different places.

Experiments:
[1] = tested on: human HT-29 colon tumor cell line; test: Tumor cell growth inhibition, Cell Titer Glo assay, 72 h; format: cell-based; settings: HT-29 cells
human PDE3A isozyme = human PDE3A isozyme (Homo sapiens, UniProt Q14432); test: IMAP fluorescence polarization phosphodiesterase assay; format: biochemical; settings: for % PDE3 Inhibition at 50 μM, cGMP: cGMP as substrate
Sequence of human PDE3A isozyme (Q14432 whole entry): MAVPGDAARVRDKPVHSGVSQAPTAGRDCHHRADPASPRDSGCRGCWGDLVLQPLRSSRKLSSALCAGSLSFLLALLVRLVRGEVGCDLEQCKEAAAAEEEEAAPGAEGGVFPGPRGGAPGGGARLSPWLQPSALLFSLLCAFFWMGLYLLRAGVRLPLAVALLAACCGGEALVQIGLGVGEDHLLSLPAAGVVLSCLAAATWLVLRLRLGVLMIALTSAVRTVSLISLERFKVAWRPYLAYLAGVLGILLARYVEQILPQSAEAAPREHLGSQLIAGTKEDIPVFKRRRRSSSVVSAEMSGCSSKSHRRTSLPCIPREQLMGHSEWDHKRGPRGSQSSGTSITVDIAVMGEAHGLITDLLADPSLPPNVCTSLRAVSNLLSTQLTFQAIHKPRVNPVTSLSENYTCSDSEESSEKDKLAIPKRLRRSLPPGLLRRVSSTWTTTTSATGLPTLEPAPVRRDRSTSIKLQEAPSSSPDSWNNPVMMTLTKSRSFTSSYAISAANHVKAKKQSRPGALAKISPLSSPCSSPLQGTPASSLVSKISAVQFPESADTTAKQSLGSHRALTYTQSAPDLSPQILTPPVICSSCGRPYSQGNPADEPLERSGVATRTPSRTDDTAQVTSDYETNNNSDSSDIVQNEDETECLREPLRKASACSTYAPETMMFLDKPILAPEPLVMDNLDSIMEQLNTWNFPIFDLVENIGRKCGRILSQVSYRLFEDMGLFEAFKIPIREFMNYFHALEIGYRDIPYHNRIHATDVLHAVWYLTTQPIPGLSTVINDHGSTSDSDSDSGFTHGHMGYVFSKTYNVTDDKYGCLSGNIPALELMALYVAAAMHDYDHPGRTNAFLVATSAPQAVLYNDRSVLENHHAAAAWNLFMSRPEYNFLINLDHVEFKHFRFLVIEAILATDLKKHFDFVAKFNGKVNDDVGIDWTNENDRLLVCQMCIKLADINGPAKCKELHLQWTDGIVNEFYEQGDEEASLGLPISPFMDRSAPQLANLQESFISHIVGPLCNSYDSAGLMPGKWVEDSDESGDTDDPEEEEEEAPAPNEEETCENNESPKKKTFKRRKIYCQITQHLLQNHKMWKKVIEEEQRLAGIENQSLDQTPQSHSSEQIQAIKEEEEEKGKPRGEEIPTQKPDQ

Row | Molecule | tumor cell growth inhibitory activity (in words) [1] | also measured
1 | N#Cc1c(-c2ccccc2O)cc(-c2ccc(Br)cc2)[nH]c1=O [Compound 1, 6-(4-Bromophenyl)-4-(2-hydroxyphenyl)-2-oxo-1,2-dihydropyridine-3-carbonitrile] | displayed tumor cell growth inhibitory activity | –
2 | COc1ccc(-c2cc(-c3ccsc3)[nH]c(=N)c2C#N)cc1 [Compound 28, 2-Imino-4-(4-methoxyphenyl)-6-(thiophen-3-yl)-1,2-dihydropyridine-3-carbonitrile] | displayed tumor cell growth inhibitory activity | –
3 | COc1ccc(OC)c(-c2cc(-c3ccc(Br)cc3)[nH]c(=N)c2C#N)c1 [Compound 9, 6-(4-Bromophenyl)-4-(2,5-dimethoxyphenyl)-2-imino1,2-dihydropyridine3-carbonitrile] | displayed tumor cell growth inhibitory activity | –
4 | 2-Imino-4-phenyl-6-(thiophen-3-yl)-1,2-dihydropyridine-3-carbonitrile [Compound 25] | – | % PDE3 Inhibition at 50 μM, cAMP (human PDE3A isozyme; 50 μM, cAMP as substrate): 21%; % PDE3 Inhibition at 50 μM, cGMP (human PDE3A isozyme; 50 μM): 26%
5 | COc1ccccc1-c1cc(-c2ccsc2)[nH]c(=N)c1C#N [Compound 29, 2-Imino-4-(2-methoxyphenyl)-6-(thiophen-3-yl)-1,2-dihydropyridine-3-carbonitrile] | displayed tumor cell growth inhibitory activity | inhibition at 50 µM (human PDE3A isozyme; read-out: % PDE3 Inhibition at 50 μM, cGMP, 50 μM, cGMP as substrate): -95%
6 | CCOc1ccc(-c2cc(-c3ccsc3)[nH]c(=N)c2C#N)cc1 [Compound 26, 4-(4-Ethoxyphenyl)-2-imino-6-(thiophen-3-yl)-1,2-dihydropyridine-3-carbonitrile] | no tumor cell growth inhibitory activity | % PDE3 Inhibition at 50 μM, cGMP (human PDE3A isozyme; 50 μM): > 50%; inhibition at 50 µM (human PDE3A isozyme; read-out: % PDE3 Inhibition at 50 μM, cAMP, 50 μM, cAMP as substrate): > 50%
7 | CCOc1ccccc1-c1cc(-c2ccsc2)[nH]c(=N)c1C#N [Compound 27, 4-(2-Ethoxyphenyl)-2-imino-6-(thiophen-3-yl)-1,2-dihydropyridine-3-carbonitrile] | displayed tumor cell growth inhibitory activity | –
8 | N#Cc1c(-c2ccccc2O)cc(-c2ccsc2)[nH]c1=O [Compound 19, 4-(2-Hydroxyphenyl)-2-oxo-6-thiophen-3-yl-1,2-dihydropyridine-3-carbonitrile] | displayed tumor cell growth inhibitory activity | –
9 | N#Cc1c(-c2cccc(Cl)c2)cc(-c2ccccc2)[nH]c1=O [Compound 15, 4-(3-Chlorophenyl)-2-oxo-6-phenyl-1,2-dihydropyridine-3-carbonitrile] | displayed tumor cell growth inhibitory activity | –
10 | CCOc1ccccc1-c1cc(-c2ccsc2)[nH]c(=O)c1C#N [Compound 21, 4-(2-Ethoxyphenyl)-2-oxo-6-thiophen-3-yl-1,2-dihydropyridine-3 carbonitrile] | displayed tumor cell growth inhibitory activity | –
